Structures can show the parent of a compound that is named as a salt. Where two headings read alike, the source gives them in different places.
Experiments:
[1] = tested on: Human peripheral blood mononuclear cells (PBMC); assay: Cytokine Induction in Human Cells; format: cell-based; conditions: 21-24 hrs culture, lowest concentration giving at least 2x negative control, tested 0.0001-10 micromolar
Protocol: Cytokine Induction in Human Cells
Whole blood was obtained from healthy human donors and collected by venipuncture into vacutainer tubes or syringes containing EDTA. Human peripheral blood mononuclear cells (PBMC) were purified from the whole blood by density gradient centrifugation. Histopaque 1077 (15 mL, Sigma, St. Louis, Mo.) was transferred to 6×50 mL sterile polypropylene conical tubes. The Histopaque was overlayed with 15-25 mL of blood diluted 1:2 in Hank's Balanced Salts Solution (HBSS) (Gibco, Life Technology, Grand Island N.Y.). The tubes were then centrifuged at 1370 rpm for 30 minutes at 20° C., with no brake (400×g, GH 3.8A Rotor).
The interface (buffy coat) containing the PBMC was collected and placed in a new sterile 50 mL conical polypropylene centrifuge tube. The PBMC were mixed with an equal volume of HBSS (about 20 mL from the interface and about 20 mL of HBSS), and then centrifuged at 1090 rpm, 10 min, 20° C., with brake (270×g, GH 3.8A Rotor). After completing centrifugation, the cells were resuspended in 2-3 mL ACK Red blood cell lysis buffer (ammonium chloride potassium solution, Gibco, Life Technology) and incubated for 2-5 minutes at 20° C. Next, HBSS (40 mL) was added to the cells, and the sample was centrifuged at 270×g for 10 min at 20° C. The supernatant was decanted, and the cell pellet was resuspended in 5 mL AIM V® Medium (Gibco, Life Technology). Cell aggregates and debris were removed by filtering the cell solution through a BD Falcon 70 micron nylon cell strainer (BD Biosciences, San Jose, Calif.).
The number of viable cells were determined by counting with a Miltenyi FACS instrument (Miltenyi Biotec Inc., San Diego, Calif.) or by using a hemacytometer. For determining cell viability with a hemacytometer, the cells were diluted 1/10 in 0.4% trypan blue and HBSS (specifically, 50 microliter of trypan blue+40 microliter of HBSS+10 microliter of cell solution were added to a microfuge tube and mixed). Ten microliters of the diluted cells were then applied to the hemacytometer, and the number of viable PBMC were determined by microscopy.
The PBMC sample was then resuspended in 96-well plates at a concentration of 8×10^5 cells/well in 0.1 mL of AIM-V medium. Each compound was solubilized in DMSO to create a 3 mM stock solution. The stock solution was then further diluted with AIM-V medium to prepare the serial dilutions. The diluted compound (100 microliters) was then transferred to the PBMCs to achieve final compound concentrations of 10, 1, 0.1, 0.01, 0.001, 0.0001 micromolar. The plates also had both positive and negative controls. The negative control wells contained only AIM-V medium with no example compound. The positive control wells contained imiquimod serially diluted to concentrations of 10, 1, 0.1, 0.01, 0.001, 0.0001 micromolar. The plates were then cultured at 37° C./5% CO2 for 21-24 hrs. Cell-free supernatants were harvested by centrifuging the 96-well plates at 2100 rpm, 23° C. for 10 minutes. Approximately 160 microliter of the supernatant was then stored in a NUNC 96-well plate, covered with the compression cap and stored at −80° C. until the cytokine analysis was done.
IFN-alpha cytokine levels (pg/mL) were measured by ELISA (human IFN-α, pan specific, Mabtech, Cincinnati, Ohio), IFN-gamma, TNF-alpha, and IP-10 cytokine levels (pg/mL) were measured by multiplex bead assay (magnetic beads, R & D Systems Minneapolis, Minn.) according to the manufacturer's instructions.
Specifically, the minimum effective concentration of each compound (micromolar) was determined as the lowest concentration of the compound that induced a measured cytokine response at a level ([…]) that was at least 2× greater than that observed with the negative control wells.

[2] = ELISA, read-out: MEC to Induce Cytokine IFN-alpha
[3] = multiplex bead assay, read-out: MEC to Induce Cytokine TNF-alpha

melting point [°C] | SMILES | minimal effective concentration [1, 2] [µM] | MEC to Induce Cytokine IFN-gamma ([1]; multiplex bead assay) [µM] | MEC to Induce Cytokine IP-10 ([1]; multiplex bead assay) [µM] | minimal effective concentration [1, 3] [µM]
– | COCCc1nc2c(N)nc3ccccc3c2n1CC(C)(C)CNC(=N)N [Example 8, 1-[3-[4-amino-2-(2-methoxyethyl)imidazo[4,5-c]quinolin-1-yl]-2,2-dimethyl-propyl]guanidine hydrochloride] | 0.1 | 0.1 | 0.01 | 0.1
188 to 192 | COCCc1nc2c(N)nc3ccccc3c2n1CCOCCNC(=N)N (as salt: hydrochloride) [Example 6, 1-[2-[2-[4-amino-2-(2-methoxyethyl)imidazo[4,5-c]quinolin-1-yl]ethoxy]ethyl]guanidine dihydrochloride] | – | – | – | –
– | COCCc1nc2c(N)nc3ccccc3c2n1CCOCCNC(=N)N [Example 6, 1-[2-[2-[4-amino-2-(2-methoxyethyl)imidazo[4,5-c]quinolin-1-yl]ethoxy]ethyl]guanidine dihydrochloride] | 0.01 | 0.01 | 0.01 | 0.01
– | CC(C)Cn1cnc2c(N)nc3ccccc3c21 [imiquimod, reference compound] | 10 | 10 | 10 | 10
246 to 250 | COCCc1nc2c(N)nc3ccccc3c2n1CC(C)(C)CNC(=N)N (as salt: hydrochloride) [Example 8, 1-[3-[4-amino-2-(2-methoxyethyl)imidazo[4,5-c]quinolin-1-yl]-2,2-dimethyl-propyl]guanidine hydrochloride] | – | – | – | –
– | CCCCCc1nc2c(N)nc3c(c2n1CCCCNC(=N)N)CCCC3 [Example 7, 1-[4-(4-amino-2-pentyl-6,7,8,9-tetrahydroimidazo[4,5-c]quinolin-1-yl)butyl]guanidine hydrochloride] | 1 | >10 | 0.1 | 1
– | CCCCc1nc2c(N)nc3ccccc3c2n1CCCCNC(=N)N [Example 4, 1-[4-(4-amino-2-butyl-imidazo[4,5-c]quinolin-1-yl)butyl]guanidine hydrochloride] | 0.01 | 0.1 | 0.01 | 0.01
– | CCCCc1nc2c(N)nc3ccccc3c2n1CCOCCNC(=N)N [Example 5, 1-[2-[2-(4-amino-2-butyl-imidazo[4,5-c]quinolin-1-yl)ethoxy]ethyl]guanidine dihydrochloride] | 0.01 | 0.01 | 0.001 | 0.001
234 to 244 | Cc1nc2c(N)nc3ccccc3c2n1CCCCNC(=N)N (as salt: hydrochloride) [Example 1, 1-[4-(4-amino-2-methyl-imidazo[4,5-c]quinolin-1-yl)butyl]guanidine dihydrochloride] | – | – | – | –
237 to 238 | CCCCc1nc2c(N)nc3ccccc3c2n1CCCCNC(=N)N (as salt: hydrochloride) [Example 4, 1-[4-(4-amino-2-butyl-imidazo[4,5-c]quinolin-1-yl)butyl]guanidine hydrochloride] | – | – | – | –
178 to 180 | CCCCCc1nc2c(N)nc3c(c2n1CCCCNC(=N)N)CCCC3 (as salt: hydrochloride) [Example 7, 1-[4-(4-amino-2-pentyl-6,7,8,9-tetrahydroimidazo[4,5-c]quinolin-1-yl)butyl]guanidine hydrochloride] | – | – | – | –
156 to 158 | CCCc1nc2c(N)nc3ccccc3c2n1CCCCNC(=N)N (as salt: hydrochloride) [Example 3, 1-[4-(4-amino-2-propyl-imidazo[4,5-c]quinolin-1-yl)butyl]guanidine hydrochloride] | – | – | – | –
– | CCc1nc2c(N)nc3ccccc3c2n1CCCCNC(=N)N [Example 2, 1-[4-(4-amino-2-ethyl-imidazo[4,5-c]quinolin-1-yl)butyl]guanidine hydrochloride] | 0.1 | – | 0.1 | 0.1
– | CCCc1nc2c(N)nc3ccccc3c2n1CCCCNC(=N)N [Example 3, 1-[4-(4-amino-2-propyl-imidazo[4,5-c]quinolin-1-yl)butyl]guanidine hydrochloride] | 0.1 | >10 | – | 0.1
– | Cc1nc2c(N)nc3ccccc3c2n1CCCCNC(=N)N [Example 1, 1-[4-(4-amino-2-methyl-imidazo[4,5-c]quinolin-1-yl)butyl]guanidine dihydrochloride] | 1 | – | – | 0.001

Reference: patent US10487081B2, “Guanidine substituted imidazo[4,5-c] ring compounds” (3M INNOVATIVE PROPERTIES COMPANY, priority 2015, dated 2019)
